Experimental data reported in patent US20220332774A1, “THERAPEUTIC MITOCHONDRIAL PEPTIDES” (priority 2019, published 2022).

Key:
[1] = tested on: 3T3-L1 Mouse Adipocytes; experiment: Free fatty acid levels in cultured 3T3-L1 mouse adipocytes (isoproterenol stimulated); type: cell-based; settings: free fatty acid in medium; 5 μM peptide, 20-22 h pre-incubation then 3 h with 0.1 nM isoproterenol; isoproterenol alone = 100%
Procedure, shortened: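 3T3-L1 cells differentiated 12 days, insulin withdrawn, then peptides added on day 13 at 5 μM (0.1% DMSO) for 20-22 h at 37° C. After 3 h in assay buffer, medium free fatty acids read at 540 nm. Values expressed as percent of 0.1 nM isoproterenol-alone control.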

[2] = tested on: H4-IIE Cells; experiment: Glucose production in cultured H4-IIE cells; type: cell-based, rat; settings: glucose concentration in medium relative to untreated cells; 5 μM peptide, 24 h
Procedure, shortened: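 Rat H4-IIE hepatoma cells primed overnight in glucose-free DMEM with 2 mM pyruvate and 10 mM lactate, then treated 24 h at 37 °C with 5 μM peptide (0.1% DMSO; concentration assumes ~2000 Da). Medium glucose measured colorimetrically at 570 nm. Values are percent of untreated-cell glucose production; 0.5-1 nM insulin served as inhibitor reference.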

[3] = tested on: C2C12 Cells; experiment: Glucose utilization in cultured C2C12 cells (myotubes); type: cell-based, mouse; settings: glucose concentration in medium relative to untreated cells; 5 μM peptide, 22 h
Procedure, shortened: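 Differentiated mouse myotubes (5 days in 2% horse serum) serum-starved 5 h, then treated 22 h at 37 °C with peptide at 5 μM final (0.1% DMSO) in low-glucose (1 g/L) DMEM. Glucose remaining in medium measured colorimetrically at 570 nm. Expressed as percent of untreated control, from 2–3 experiments in triplicate.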

| Substance | Percent of Isoproterenol Control Activity [1] [%] | Percent of Control Activity [2] [%] | Percent of Control Activity [3] [%] |
| --- | --- | --- | --- |
| 159 (MWGVSDMLVFLEV) [compound 159] | 100 | 111 | 102 |
| 160 (MWLGVGLGWVG) [compound 160] | 102 | 102 | 94 |
| 161 (MWLIEEYAMSDF) [compound 161] | 99 | 114 | 103 |
| 162 (MWLVLWLWML) [compound 162] | 106 | 113 | 103 |
| 163 (MWMPPTLPHIR) [compound 163] | 87 | 110 | 105 |
| 164 (MWNDLLQCSEP) [compound 164] | 116 | 109 | 102 |
| 165 (MWRVLGALWW) [compound 165] | 108 | 125 | 95 |
| 166 (MWSHPSHHSTINITNKWLL) [compound 166] | 96 | 105 | 105 |
| 168 (MYCNWDCSGE) [compound 168] | 108 | 120 | 103 |
| 169 (MYLNGTCSAS) [compound 169] | 110 | 109 | 107 |
| 170 (MYNYAKAPTL) [compound 170] | 95 | 109 | 106 |
| 171 (MYRHLQQTLMKATK) [compound 171] | 104 | 100 | 110 |
| 172 (MYTNKQCSTSNYY) [compound 172] | 94 | 111 | 106 |
| 173 (MYTPTNNVQPVTTTNQRP) [compound 173] | 114 | 103 | 95 |
| 174 (MYYSDGYWGVSWGMGV) [compound 174] | 105 | 110 | 93 |
| 176 (MKNIEAPLAW) [compound 176] | 95 | 108 | 103 |
| 177 (MRMGASIGSTTRLSTS) [compound 177] | 94 | 111 | 91 |
| 178 (MVQTVSISWASEMLVLVSFVVSV) [compound 178] | 90 | 108 | 99 |
| 179 (MSSSMMGEVASC) [compound 179] | 102 | 100 | 105 |
| 180 (MVVGSWCWSLSWVVGMR) [compound 180] | 101 | 106 | 103 |
| 181 (MCHWAGGASNTGDA) [compound 181] | 103 | 109 | 107 |
| 182 (MFAVSMMWSLE) [compound 182] | 92 | 113 | 98 |
| 183 (MMKVDATMDFT) [compound 183] | 94 | 121 | 101 |
| 184 (MASAKGCSSP) [compound 184] | 104 | 118 | 106 |
| 185 (MLVMLEVMFLVN) [compound 185] | 86 | 119 | 92 |

| Substance | Percent of Isoproterenol Control Activity [1] [%] | Percent of Control Activity [2] [%] | Percent of Control Activity [3] [%] |
| --- | --- | --- | --- |
| 186 (MIINDEYWLVVLVMVHCPESMLLK) [compound 186] | 105 | 115 | 94 |
| 187 (AYEGCCYSCKQEDNADVSGFWVEK) [compound 187] | 102 | 113 | 110 |
| 188 (DWSNWVWGVQLYVWDFLGSGCWAW) [compound 188] | 104 | 125 | 113 |
| 189 (FEELINVWVWVYMSQWEFYDGPCN) [compound 189] | 95 | 116 | 98 |
| 190 (MYHSENSMMDHVTNNATGMNIMEK) [compound 190] | 101 | 118 | 107 |
| 191 (LGWGWPGGWVWGGGFMVEERWWEL) [compound 191] | 101 | 111 | 95 |
| 192 (LGWVVGSFFMGGVWVGRSGIGGML) [compound 192] | 104 | 110 | 98 |
| 193 (LHNNPNPNTNYLPNWKQNTQMGLS) [compound 193] | 105 | 110 | 110 |
| 194 (LSPKPQQLNQQNCSPEHYEPQLKT) [compound 194] | 103 | 109 | 92 |
| 195 (LTSKYSNQPSTITHQLQLQSHPSP) [compound 195] | 110 | 108 | 112 |
| 196 (LVPFDRGDLEGELTGTGMLACVIL) [compound 196] | 98 | 116 | 97 |
| 197 (WVEVMMEVEIWCCEIVLGNSFSSQ) [compound 197] | 100 | 105 | 102 |
| 198 (PIVTIMSPSWLEVEKATIFLMSFC) [compound 198] | 112 | 100 | 88 |
| 199 (PLCKIHCRIHLYYQSLPHNNIHVP) [compound 199] | 105 | 111 | 94 |
| 200 (RLLAWGNTWWQLLWNEGLFFWLEL) [compound 200] | 104 | 97 | 93 |
| 201 (TKNFHQTPPPPLLATALKHISAKP) [compound 201] | 102 | 109 | 96 |
| 202 (MWVIEEYAKILRSWVWFNPPQLPA) [compound 202] | 93 | 103 | 89 |
| 203 (KNIEAPLAW) [compound 203] | 107 | 102 | 98 |
| 204 (RMGASIGSTTRLSTS) [compound 204] | 111 | 107 | 95 |
| 205 (VQTVSISWASEMLVLVSFVVSV) [compound 205] | 105 | 102 | 99 |
| 206 (SSSMMGEVASC) [compound 206] | 95 | 106 | 99 |
| 207 (VVGSWCWSLSWVVGMR) [compound 207] | 98 | 103 | 90 |
| 208 (CHWAGGASNTGDA) [compound 208] | 103 | 107 | 89 |
| 209 (FAVSMMWSLE) [compound 209] | 97 | 104 | 102 |
| 210 (MKVDATMDFT) [compound 210] | 95 | 100 | 92 |
